This note sets out measurements from US20220143024A1, “METHODS OF USING IMIPRIDONES” (Board of Regents, The University of Texas System, priority 2019, published 2022).

Like-named read-outs stand apart in the source and are kept apart here.

Assay [1] deals with ClpP interactors (SDHA, SDHB, NDUFA12) in OCI-AML3 cells. Nature of the assay: Immunoblot of respiratory chain complex subunits, OCI-AML3. It is filed as cell-based. Particulars: 24 hours, dose dependent. On the procedure:
Cells were lysed at a density of 1×10^6/50 μL (for AML cells) or 1×10^6/100 μL (for HCT116 cells) in protein lysis buffer (0.25 M Tris-HCl, 2% sodium dodecylsulfate, 4% β-mercaptoethanol, 10% glycerol, 0.02% bromophenol blue). Protein lysates for Oxphos cocktail antibodies were incubated for 30 min at room temperature, otherwise, at 95° C. for 5 min for denaturing (antibodies used are listed below). Immunoblot analysis was performed as reported previously (Ishizawa et al., 2016). Briefly, an equal amount of protein lysate was loaded onto a 10-12% SDS-PAGE gel (Bio-Rad), and quantitated using the Odyssey imaging system (LI-COR Biotechnology, Lincoln, Nebr.). Antibodies used: total OXPHOS rodent WB antibody cocktail, anti-SDHA, anti-SDHB, anti-NDUFA12, anti-ClpP, anti-ATF4, anti-eIF2α, anti-phospho-eIF2α (S51), anti-ClpP, anti-CQCRC2, anti-CS, anti-NDUFB8, anti-β-actin, and anti-GAPDH.
In general terms: Immunoblotting shows a protein as a band on a membrane.

The test system of assay [2] is CLPP−/− T-REx HEK293 cells. Nature of the assay: Alamar blue viability, CLPP−/− T-REx HEK293. Conditions: 72 h. (In general: The colour change of resazurin is a common sign of viable cells or microbes.)
Method: (§3) After a 72-h period of incubation at 37° C., 10 μL of Alamar Blue was added to the culture medium and the mixture was incubated for an additional 2 h at 37° C. Cytotoxicity was measured using spectrophotometry of fluorescence at excitation 560 nm & emission 590 nm (SpectraMax M3, Molecular Devices, San Jose, Calif.). […] Annexin V and PI were stained after 72 h incubation. Annexin V- and PI-negative cells were counted as live cells.
Assay [3] concerns CLPP+/+ T-REx HEK293 cells. Nature of the assay: Alamar blue viability, CLPP+/+ T-REx HEK293. Conditions: CLPP+/+ (wild type) T-REx HEK293, 72 h.
Method: as §3
For assay [4], the target named is T1, human ClpP (recombinant WT ClpP) (Homo sapiens, UniProt Q16740).
T1 construct: SUMO fusion (pETSUMO2); made in house; host or cells: E. coli SG1146
T1 sequence (Q16740 57-277): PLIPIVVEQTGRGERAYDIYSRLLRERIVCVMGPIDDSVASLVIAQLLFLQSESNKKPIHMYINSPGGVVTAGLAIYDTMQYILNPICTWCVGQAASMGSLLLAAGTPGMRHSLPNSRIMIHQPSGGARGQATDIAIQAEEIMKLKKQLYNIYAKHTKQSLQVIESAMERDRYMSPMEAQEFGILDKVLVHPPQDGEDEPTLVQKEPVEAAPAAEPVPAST
Nature of the assay: ClpP enzymatic assays with fluorogenic substrates (cell-free). It is filed as biochemical. Particulars: for EC50: without ClpX. On the procedure: (§1) Hill coefficient was determined using Origin7, Pharmacology—Dose-response curve with log (compound concentration) as the independent variable.

Assay [5] deals with patient-derived xenograft AML cells (leukemia-initiating cells). Nature of the assay: Engraftment of ex vivo treated patient-derived xenograft AML cells. It is filed as in vivo. Conditions: cells treated ex vivo with 250 nM for 36 hours, injected into NSG mice; untreated 36 days; p<0.0001. On the procedure: (§2) Mice. For all the animal studies in the present study, the study protocols were approved by the Institutional Animal Care and Use Committee (IACUC) at the Princess Margaret Cancer Centre and MD Anderson Cancer Center. Two million Z138 cells transfected with the wild-type or D190A mutant CLPP-over-expressing vector and labeled with luciferase were injected to individual NSG mice (n=7 per treatment group, all female). After confirming engraftment measured by in vivo bioluminescence imaging on d 9 post-transplantation, ONC212 (50 mg/kg/d) or vehicle (water) is administered by oral gavage every other d until the mice got moribund. Tumor burden measured by luminescence was followed weekly until day 31. Independently, two million Z138 cells transfected with tetracycline-inducible Y118A mutant ClpP were labeled with luciferase and injected to individual NSG mice (n=10 per treatment group, all male). After confirming engraftment measured by in vivo bioluminescence imaging on day 5 post-transplantation, the mice were treated with or without tetracycline (2 mg/mL) in drinking water until moribund. One million OCI-AML2 cells were injected to individual SCID mice (n=10 per treatment group, all male). […]. Engraftment experiments using patient-derived xenograft AML cells were performed as previously reported (Ishizawa et al., 2016). […] The mice in each group were monitored for survival.
For orientation: Xenograft models place foreign cells or tissue in a host animal.

For assay [6], the target named is endogenous ClpP in OCI-AML2 cells (Homo sapiens, UniProt Q16740). Particulars: 30 min, at concentrations associated with activation in enzymatic assays.
endogenous ClpP in OCI-AML2 cells, sequence (Q16740 57-277): as above
Assay [7] relates to primary AML patient samples. Nature of the assay: Annexin V assay in primary AML samples. Conditions: 72 hours; incl. high-risk cytogenetics and molecular mutations.
Method: Bulk AML cells from AML patients and peripheral blood stem cells from healthy G-CSF-treated stem cell donors were isolated by Ficoll density centrifugation and apheresis, respectively. Isolated cells were maintained in IMDM supplemented with 10% FBS, or Myelocult H5100 (Stemcell Technologies, Vancouver, BC), supplemented with 100 ng/mL SCF, 10 ng/mL FLT3-L, 20 ng/mL IL-7, 10 ng/mL IL-3, 20 ng/mL IL-6, 20 ng/mL G-CSF, 20 ng/mL GM-CSF. Cells were supplemented with 100 μg/ml penicillin, and 100 U/ml streptomycin, at 37° C. and 5% CO2 in humidified atmosphere.
Assay [8] deals with ONC201-resistant (ONC-R) Z138 cells carrying D190A mutant ClpP. Nature of the assay: Sensitivity of ONC201-resistant Z138 cells. Conditions: Annexin V assay; 72 hours.
Method: as §3
The test system of assay [9] is Z138 cells with WT ClpP overexpression. Nature of the assay: Z138 xenograft, WT ClpP overexpression. It is filed as in vivo, mice. Conditions: WT ClpP group. As to the method: as §2
For assay [10], the system named is Z138 cells with D190A ClpP overexpression. Nature of the assay: Z138 xenograft, D190A ClpP overexpression. The format is in vivo, mice. As to the method: as §2
Assay [11] addresses T2, ClpP (Homo sapiens, UniProt Q16740).
T2 construct: SUMO fusion (pETSUMO2); made in house; host or cells: E. coli SG1146
Nature of the assay: Gel-based α-casein degradation by ClpP. It is filed as biochemical. Conditions: without ClpX; 3 h; SDS-PAGE.

In assay [12] the target is T3, recombinant D190A ClpP (Homo sapiens, UniProt Q16740, D190A).
T3 construct: SUMO fusion (pETSUMO2); made in house; host or cells: E. coli SG1146
T3 sequence (Q16740 57-277 D190A): as the sequence (Q16740 57-277) above, with D134A counted along it
Nature of the assay: ClpP enzymatic assays, D190A ClpP. It is filed as biochemical. Conditions: peptide (AC-WLA-AMC) or protein (FITC-casein) substrates. On the procedure:
as §1

Assay [13] concerns OCI-AML2, OCI-AML3, TEX, Z138, HCT-116, HeLa, OC316 and SUM159 cells. Nature of the assay: Growth and viability of leukemia, lymphoma and solid tumor cell lines. Conditions: tested cell lines; 72-hour exposure.
Method: as §3
The test system of assay [14] is Z138 cells with tetracycline-inducible mutant ClpP (Y118A). Nature of the assay: Z138 xenograft with tetracycline-inducible Y118A mutant ClpP. Particulars: tetracycline 2 mg/mL in drinking water induces Y118A ClpP; untreated 40 days; p<0.0001; NSG mice. The format is in vivo. On the procedure: as §2
Assay [15] deals with OCI-AML2 cells. Nature of the assay: Alamar blue viability assay, OCI-AML2. It is filed as cell-based. Conditions: 72-hour exposure, read-out: IC50, growth and viability. As to the method: […]. After a 72-h period of incubation at 37° C., 10 μL of Alamar Blue was added to the culture medium and the mixture was incubated for an additional 2 h at 37° C. Cytotoxicity was measured using spectrophotometry of fluorescence at excitation 560 nm & emission 590 nm (SpectraMax M3, Molecular Devices, San Jose, Calif.). For apoptosis analysis, annexin V and PI binding assays were performed to assess apoptosis as described previously (Ishizawa et al., 2016). […]. Annexin V and PI were stained after 72 h incubation. Annexin V- and PI-negative cells were counted as live cells.

Where [16] appears, read: substrate FITC-casein, read-out: EC50, ClpP cleavage of FITC-casein.

T2 sequence (Q16740 57-277): as the sequence (Q16740 57-277) above

As a reminder, the Hill coefficient is the slope factor of the fitted curve. A word on the EC50: it is the concentration that produces a half-maximal response. Turning to `O=C1C2=C(CCN(Cc3ccccc3)C2)N2CCN=C2N1Cc1ccc(C(F)(F)F)cc1` [ONC212], in assay [1], the “level of identified ClpP interactors” value is reported as “reduced the level”. Also, the growth and viability result is “resistant” in assay [2]; “reduced the growth and viability” in assay [3]. Also, the Hill coefficient in assay [4] (FITC-casein data, positive cooperativity) amounted to 4.98±0.47. In addition, the mode of activation result in [4] (pre-incubation of ClpP with compound (0-60 min) did not increase activation) is given as “reversible (non-covalent)”. Further, the EC50 in assay [4] (read-out: EC50, ClpP cleavage of FAPHMALVPC (Clptide), substrate FAPHMALVPC (Clptide), read-out: EC50, ClpP cleavage of […] (Clptide)) came out at 3370 nM; in assay [4] (substrate AC-WLA-AMC, read-out: EC50, ClpP cleavage of AC-WLA-AMC), 180 nM; in assay [4] (substrate Ac-Phe-hArg-Leu-ACC, read-out: EC50, ClpP cleavage of Ac-Phe-hArg-Leu-ACC), 370 nM; in assay [4] (setting [16]), 460 nM. Also, the median survival stood at 82 days in [5]; 55 days in assay [9] (vehicle 49 days, p=0.008); 54 days in assay [10] (D190A mutant group, vehicle 53 days, p=0.40). The “binding to endogenous ClpP in cells” value in [6] is on record as “bound endogenous ClpP”. The “apoptosis in primary AML patient samples” value in [7] was “induced apoptosis”. For the same compound, the “sensitivity of ONC-R Z138 cells” value in assay [8] is listed as “cross-resistant”. Further, the “tumor burden (luciferase, IVIS imaging)” value was “significantly reduced” in assay [9] (50 mg/kg every other day, oral gavage, NSG mice) and “no discernable anti-tumor activity” in [10] (D190A ClpP group, 50 mg/kg every other day, oral gavage, NSG mice). For the same compound, the “degradation of α-casein by ClpP” value in assay [11] is “activated ClpP and induced cleavage of α-casein”. In assay [12], the “activation of proteolytic activity of D190A ClpP” value was “could not activate”. Moreover, in assay [13], the “IC50 values, growth and viability” value is reported as “nanomolar range”.

Take `CN(C)[C@@H]1C(O)=C(C(N)=O)C(=O)[C@@]2(O)C(O)=C3C(=O)c4c(O)cccc4[C@@](C)(O)[C@H]3C[C@@H]12` [tetracycline]: in assay [14], the median survival was 48 days.

Regarding `CC[C@]1(O)C[C@H]2CN(CCc3c([nH]c4ccccc34)[C@@](C(=O)OC)(c3cc4c(cc3OC)N(C=O)[C@H]3[C@@](O)(C(=O)OC)[C@H](OC(C)=O)[C@]5(CC)C=CCN6CC[C@]43[C@@H]65)C2)C1` [Vincristine], the “sensitivity of ONC-R Z138 cells” value in assay [8] is reported as “retained similar sensitivity”.

As to `COc1cccc2c1C(=O)c1c(O)c3c(c(O)c1C2=O)C[C@@](O)(C(=O)CO)C[C@@H]3O[C@H]1C[C@H](N)[C@H](O)[C@H](C)O1` [Adriamycin], in assay [8], the “sensitivity of ONC-R Z138 cells” value is listed as “retained similar sensitivity”.

Usually IC50 stands for the concentration needed to halve the response being measured. On to Acyldepsipeptide 1 [ADEP1], for which the “potency as ClpP activator (comparison)” value in [4] (ADEP1 versus ONC201 and ONC212) was “less potent”. In addition, the “cleavage of non-ClpP substrate MCA-Pro-Leu-Gly-Pro-D-Lys (DNP)-OH” value in [4] (after activating ClpP) is “not cleaved”. In assay [4] (setting [16]), the EC50 was determined as 21300 nM. The IC50 in assay [15] is 50000 nM.
